14 compounds from PubChem BioAssay AID651547 (The Scripps Research Institute Molecular Screening Center, 2012) can be followed below.

Activity calls are given as the source filed them.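 The calls were made as follows: active = potency, meaning EC50, at or under 10 µM; inactive = the rest.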

In this assay the target is Melanocortin receptor 4 (Homo sapiens) (UniProt P32245). Kind of assay: activators of MC4R Gs-cAMP pathway – cell-based, FRET, agonists, late-stage follow-up (AID 651547). Particulars: MC4R-expressing cells, cAMP TR-FRET (LANCE Ultra), agonist.
Melanocortin receptor 4 (Homo sapiens), sequence (P32245 whole entry, looked up): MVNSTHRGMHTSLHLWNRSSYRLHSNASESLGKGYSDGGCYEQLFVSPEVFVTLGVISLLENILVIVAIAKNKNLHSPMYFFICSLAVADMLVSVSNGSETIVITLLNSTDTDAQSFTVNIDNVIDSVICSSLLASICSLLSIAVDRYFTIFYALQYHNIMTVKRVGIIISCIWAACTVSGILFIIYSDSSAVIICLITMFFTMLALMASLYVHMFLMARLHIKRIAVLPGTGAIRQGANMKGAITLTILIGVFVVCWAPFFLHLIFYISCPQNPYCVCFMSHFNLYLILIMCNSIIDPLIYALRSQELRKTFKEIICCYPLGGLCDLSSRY
Take `C#CC(=O)N(c1ccc(OC)c(OC)c1)C(C(=O)NC1CCCC1)c1cccs1` (centres undefined): the EC50 was > 50 µM (inactive). In the case of `CCC1CCCCN1S(=O)(=O)c1ccc(NC(=O)c2ccccc2)cc1` (centres undefined), the EC50 is > 50 µM (inactive).

For the compound `O=C1c2cccc3cccc(c23)C(=O)N1CC1CCN(CC(O)COc2ccc3ccccc3c2)CC1` (centres undefined), the EC50 is > 50 µM (inactive). For `CNC(=O)c1cc(Oc2ccc(NC(=O)Nc3ccc(Cl)c(C(F)(F)F)c3)cc2)ccn1`, the EC50 is > 50 µM (inactive). With `CC(=O)c1ccc(Nc2nc3ccc(C(=O)N(CCC(C)C)CCC(C)C)cc3n2CCCN2CCCCC2)cc1`, the EC50 is > 50 µM (inactive). On to `COc1ccccc1C1(CCNC(C)c2cccs2)CCOC(C(C)C)C1` (centres undefined), for which the EC50 is > 50 µM (inactive). With `CCC1CCCCN1S(=O)(=O)c1ccc(NC(=O)c2ccnc(SC)n2)cc1` (centres undefined) the figure was > 50 µM (inactive); with `CNC(=O)c1cc(Oc2ccc(NCC(=O)Nc3ccc(Cl)c(C(F)(F)F)c3)cc2)ccn1`, > 50 µM (inactive). With `CCC1CCCCN1S(=O)(=O)c1ccc(NC(=O)c2cccc(S(C)(=O)=O)c2)cc1` (centres undefined) the figure was > 50 µM (inactive). For `Cc1ccccc1CN1Cc2cnnn2-c2ccccc2C1C#N` (centres undefined), the EC50 is > 50 µM (inactive). With `CC1CCCCN1S(=O)(=O)c1ccc(NC(=O)c2nc(S(C)(=O)=O)ncc2Cl)cc1` (centres undefined) the figure was > 50 µM (inactive). Take `CCC1CCCCN1S(=O)(=O)c1ccc(NC(=O)c2nc(S(C)(=O)=O)ncc2Cl)cc1` (centres undefined): the EC50 is > 50 µM (inactive).

Take `CNC(=O)c1cc(Oc2ccc(NC(=O)CNc3ccc(Cl)c(C(F)(F)F)c3)cc2)ccn1`: the EC50 was > 50 µM (inactive).

As to `COc1ccc(N(C(C)=O)C(C(=O)NC2CCCC2)c2cccs2)cc1OC` (centres undefined), the EC50 is > 50 µM (inactive).
